Patent US12679836B2, “4H-pyrrolo[3,2-c]pyridin-4-one compounds” (Bayer Aktiengesellschaft, priority 2019, dated 2026)
Values joined by “and” are separate entries in the source; they are usually repeats but may differ in a detail not shown here. Equal entries are not always repeated.

Experiments:
[1] = test system: PC9 cells (EGFRex19del); experiment: PC9 proliferation assay (Cell Titer Glo); type: cell-based; settings: Homo sapiens, PC-9, 72 h
Procedure: Cellular Data Description (PC9 Cells, EGFRex19del)
(§1) PC9 cells were purchased from ATCC. 400 PC9 cells per well were seeded in growth medium (DMEM, 10% FCS) in a 384-well plate (CORNING #3571). Seed reference plate for time zero determination on the same day. All plates were incubated overnight at 37° C. After 24 hours, test compound were added in 7-step dilution using HP Compound printer and incubated at 37° C. for 72 h. After 3 days, 30 μL/well CTG solution (Promega Cell Titer Glo solution; catalog # G755B and G756B) were added to each well, incubated for 30 minutes and the plate were read on PheraStar. Proliferation is calculated after subtracting time zero luminescence values from day 4 values and comparing to untreated wells. The IC50 values were determined using the four parameter fit.

[2] = test system: HCC-827 cells (EGFRex19del); experiment: HCC-827 proliferation assay (Cell Titer Glo); type: cell-based; settings: Homo sapiens, HCC827, 72 h
Procedure: Cellular Data Description (HCC-827 Cells, EGFRex19del)
as §1, with “HCC-827 cells” for “PC9 cells”, “[…]” for “400 PC9”, “medium (RPM11640,” for “medium (DMEM,”, “wells.” for “wells. The IC50 values were determined using the four parameter fit.”
The IC50 values were determined using the four parameter fit.

[3] = target: Ba/F3-EGFR-E746_A750del cells (Homo sapiens, UniProt P00533, DEL746-750, cells depend on it); experiment: Ba/F3 cell survival assay, EGFR E746_A750del; type: cell-based; settings: without IL-3, without EGF, 48 h; read-out: BA/F3 (EGFR E746_A750del) IC50
Procedure: (§2) 293T cells from ATCC were transfected with pBABEpuro expression constructs for mutant EGFR (V769_D770insASV, D770_N771insNPG, N771_P772insH, H773_V774insNPH, E746_A750del, L858R, D770_N771insSVD C797S, E746_A750del C797S, L858R C797S, L861Q) or mutant ERBB2 (A775_G776insYVMA) and pCL-Eco packaging vector using Fugene-6 transfection reagent from Promega. Plates were incubated at 37° C. for 48 h. Retrovirus was harvested by filtering the media supernatant through a 0.45 μm filter.
(§3) Ba/F3 cells purchased from DSMZ were grown in RPMI+10% FBS+10 ng/mL IL-3 and infected with filtered retroviral supernatant at a 1:2 dilution. Polybrene was added to a concentration of 8 μg/mL, plates were spun for 90 min, and incubated overnight at 37° C. 2 μg/mL puromycin was added to the infected cells 24 h after infection and cells were continually grown in the presence of puromycin and 10 ng/mL IL-3. Following stably expressing Ba/F3 cell lines were generated: Ba/F3-EGFR-V769_D770insASV, Ba/F3-EGFR-D770_N771insNPG, Ba/F3-EGFR-N771_P772insH, Ba/F3-EGFR-H773_V774insNPH, Ba/F3-EGFR-E746_A750del, Ba/F3-EGFR-L858R, Ba/F3-EGFR-D770_N771 insSVD C797S, Ba/F3-EGFR-E746_A750del C797S, Ba/F3-EGFR-L858R C797S, Ba/F3-EGFR L861Q and Ba/F3-ERBB2-A775_G776insYVMA (Ba/F3-vector-control).
(§4) For cell survival assays, Ba/F3 cells were grown to a density of 1-2 million cells per mL, spun down and resuspended in media without IL-3, and replated at a concentration 200,000-500,000 cells per mL. The cells ectopically expressing WT EGFR plated with 10 ng/mL Millipore Culture grade EGF and Ba/F3 cells containing mutant EGFR or Mutant ERBB2 were cultivated without EGF. The cells ectopically expressing pBABEpuro empty vector were plated with 10 ng/mL IL-3.
(§5) 2 days later, cells were plated in 50 μL in a 384 well plate at a concentration of 4000 cells per well for cells assayed in the absence of IL-3 and 2000 cells per well for cells assayed in the presence of IL-3. 100 nL of compound was added to each well using a 100 nL pin head, and plates were incubated at 37° C. for 48 h.
(§6) Cell viability was measured by adding 20 μL of Cell Titer-Glo Luminescent Cell Viability Reagent diluted 1:3 in PBS. Plates were sealed with Perkin Elmer Top-Seal, inverted several times to mix, and immediately centrifuged at 1000 rpm for 2 min. Plates were incubated in low light conditions for 8-10 min and luminescence was measured.

[4] = target: Ba/F3-EGFR-L858R C797S cells (Homo sapiens, UniProt P00533, C797S/L858R, cells depend on it); experiment: Ba/F3 cell survival assay, EGFR L858R C797S; type: cell-based; settings: without IL-3, without EGF, 48 h; read-out: BA/F3 (EGFR L858R C797S) IC50
Procedure: as §2, §3, §4, §5, §6

[5] = target: T1, EGFR with insertion of SVD between D770 and N771 (EGFR ins SVD) (Homo sapiens, UniProt P00533, DUP768-770); experiment: Exon20-Mutant-EGFR(D770_N771insSVD) kinase assay (TR-FRET); type: biochemical; settings: 2 mM ATP, several values per example where printed
T1 construct: made in house; host or cells: Sf9 insect cells (baculovirus)
T1 sequence (P00533 with tags, fused parts or gaps DUP768-770): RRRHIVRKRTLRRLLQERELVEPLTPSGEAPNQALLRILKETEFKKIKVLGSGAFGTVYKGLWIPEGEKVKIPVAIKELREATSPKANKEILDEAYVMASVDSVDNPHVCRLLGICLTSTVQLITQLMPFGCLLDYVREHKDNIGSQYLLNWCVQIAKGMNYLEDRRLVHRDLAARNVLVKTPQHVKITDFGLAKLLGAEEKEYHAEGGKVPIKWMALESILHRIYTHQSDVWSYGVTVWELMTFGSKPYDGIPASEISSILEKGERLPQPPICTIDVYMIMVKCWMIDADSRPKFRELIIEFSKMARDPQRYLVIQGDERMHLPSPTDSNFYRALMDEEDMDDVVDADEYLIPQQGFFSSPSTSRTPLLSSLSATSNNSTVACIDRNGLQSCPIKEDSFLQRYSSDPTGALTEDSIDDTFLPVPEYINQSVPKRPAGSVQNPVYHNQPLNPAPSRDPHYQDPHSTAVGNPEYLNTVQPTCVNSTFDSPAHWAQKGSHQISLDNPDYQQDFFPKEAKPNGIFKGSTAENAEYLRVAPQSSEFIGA

Ba/F3-EGFR-E746_A750del cells, sequence (P00533 with tags, fused parts or gaps DEL746-750): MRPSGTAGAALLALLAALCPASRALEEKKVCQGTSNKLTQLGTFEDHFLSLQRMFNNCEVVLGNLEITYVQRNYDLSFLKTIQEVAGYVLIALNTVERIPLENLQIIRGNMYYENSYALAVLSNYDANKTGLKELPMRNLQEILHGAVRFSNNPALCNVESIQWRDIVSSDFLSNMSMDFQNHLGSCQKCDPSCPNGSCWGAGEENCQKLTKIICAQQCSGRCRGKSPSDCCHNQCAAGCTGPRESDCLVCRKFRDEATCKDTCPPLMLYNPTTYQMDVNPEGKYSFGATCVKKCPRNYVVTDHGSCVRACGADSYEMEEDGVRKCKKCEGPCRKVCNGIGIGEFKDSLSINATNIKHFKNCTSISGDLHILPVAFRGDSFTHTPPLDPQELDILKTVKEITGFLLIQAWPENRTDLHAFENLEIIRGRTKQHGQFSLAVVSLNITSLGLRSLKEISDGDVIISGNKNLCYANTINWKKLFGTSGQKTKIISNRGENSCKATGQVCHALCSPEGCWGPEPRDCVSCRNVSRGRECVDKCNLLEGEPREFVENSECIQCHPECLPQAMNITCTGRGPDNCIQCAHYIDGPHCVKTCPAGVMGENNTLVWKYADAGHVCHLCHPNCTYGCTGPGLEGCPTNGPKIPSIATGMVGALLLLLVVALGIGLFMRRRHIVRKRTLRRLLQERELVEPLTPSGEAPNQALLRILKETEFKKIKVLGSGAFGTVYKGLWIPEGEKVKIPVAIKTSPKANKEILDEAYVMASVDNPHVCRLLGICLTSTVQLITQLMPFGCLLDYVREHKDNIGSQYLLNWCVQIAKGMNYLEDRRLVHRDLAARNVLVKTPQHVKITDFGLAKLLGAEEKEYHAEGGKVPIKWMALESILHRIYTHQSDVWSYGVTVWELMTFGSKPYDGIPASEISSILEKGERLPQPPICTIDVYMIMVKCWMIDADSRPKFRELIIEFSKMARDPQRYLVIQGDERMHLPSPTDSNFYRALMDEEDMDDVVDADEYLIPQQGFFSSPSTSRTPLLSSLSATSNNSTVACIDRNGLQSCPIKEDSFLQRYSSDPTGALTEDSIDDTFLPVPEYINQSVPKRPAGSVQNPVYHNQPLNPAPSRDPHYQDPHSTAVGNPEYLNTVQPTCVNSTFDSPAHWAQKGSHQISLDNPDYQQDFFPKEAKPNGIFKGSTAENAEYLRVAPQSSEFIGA
Ba/F3-EGFR-L858R C797S cells, sequence (P00533 whole entry C797S/L858R): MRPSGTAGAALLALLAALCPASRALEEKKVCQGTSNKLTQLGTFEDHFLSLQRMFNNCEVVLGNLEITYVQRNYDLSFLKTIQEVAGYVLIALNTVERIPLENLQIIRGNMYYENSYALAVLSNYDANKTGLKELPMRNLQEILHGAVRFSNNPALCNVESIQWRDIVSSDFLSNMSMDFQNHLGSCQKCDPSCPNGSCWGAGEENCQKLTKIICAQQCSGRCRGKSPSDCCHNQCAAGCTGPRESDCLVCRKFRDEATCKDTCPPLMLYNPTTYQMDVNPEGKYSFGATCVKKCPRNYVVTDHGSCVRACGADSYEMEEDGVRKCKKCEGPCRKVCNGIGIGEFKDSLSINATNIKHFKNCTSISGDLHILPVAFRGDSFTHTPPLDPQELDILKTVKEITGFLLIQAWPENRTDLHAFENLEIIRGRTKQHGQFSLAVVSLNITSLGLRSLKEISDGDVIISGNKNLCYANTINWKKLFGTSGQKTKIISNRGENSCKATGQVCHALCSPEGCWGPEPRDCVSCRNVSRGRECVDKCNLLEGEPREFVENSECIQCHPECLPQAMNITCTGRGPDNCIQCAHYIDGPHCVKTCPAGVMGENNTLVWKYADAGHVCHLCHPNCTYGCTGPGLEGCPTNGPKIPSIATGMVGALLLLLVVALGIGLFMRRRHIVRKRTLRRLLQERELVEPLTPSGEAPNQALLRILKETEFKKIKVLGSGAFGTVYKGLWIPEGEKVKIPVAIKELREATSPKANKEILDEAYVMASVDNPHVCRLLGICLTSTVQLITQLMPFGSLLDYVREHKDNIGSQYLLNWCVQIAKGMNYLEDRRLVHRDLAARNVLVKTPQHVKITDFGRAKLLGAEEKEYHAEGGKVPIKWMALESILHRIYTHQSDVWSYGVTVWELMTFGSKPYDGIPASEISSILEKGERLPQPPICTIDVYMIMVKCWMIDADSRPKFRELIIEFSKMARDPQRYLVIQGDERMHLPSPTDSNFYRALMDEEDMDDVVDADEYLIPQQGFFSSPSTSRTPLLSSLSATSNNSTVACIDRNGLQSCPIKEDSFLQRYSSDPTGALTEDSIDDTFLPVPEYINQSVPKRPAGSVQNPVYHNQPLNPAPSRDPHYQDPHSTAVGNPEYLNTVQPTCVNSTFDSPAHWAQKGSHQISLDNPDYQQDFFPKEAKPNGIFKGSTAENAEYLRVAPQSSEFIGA

SMILES | IC50 [1] [nM] | IC50 [2] [nM] | mutEGFR (D770_N771insSVD) kinase assay IC50 [5] | GI50 [3] [nM] | GI50 [4] [nM]
COc1c(Cl)cccc1Nc1c(-c2ccncc2OC[C@@H]2COCCO2)[nH]c2c1C(=O)NCC2 (single isomer, unassigned) [Example 2] | 0.673 | < 3 | – | < 0.158 | 0.603
COc1c(F)cccc1Nc1c(-c2ccncc2OCC2COCCO2)[nH]c2c1C(=O)NCC2 (single isomer, unassigned) [Example 5, 2-{3-[(1,4-dioxan-2-yl)methoxy]pyridin-4-yl}-3-(3-fluoro-2-methoxyanilino)-1,5,6,7-tetrahydro-4H-pyrrolo[3,2-c]pyridin-4-one] | – | – | <0.0725 nM and 0.0851 nM and 0.112 nM and 0.114 nM and 0.12 nM and 0.124 nM and 0.136 nM | 0.739 | 2.67
O=C1NCCc2[nH]c(-c3ccncc3OCC3COCCO3)c(Nc3cccc(Cl)c3Cl)c21 (single isomer, unassigned) [Example 8, 3-(2,3-dichloroanilino)-2-{3-[(1,4-dioxan-2-yl)methoxy]pyridin-4-yl}-1,5,6,7-tetrahydro-4H-pyrrolo[3,2-c]pyridin-4-one] | 0.738 | < 3 | 0.0799 nM | < 0.158 | 1.2
COc1c(Cl)cccc1Nc1c(-c2ccncc2OCC2COC(C)(C)CO2)[nH]c2c1C(=O)NCC2 (single isomer, unassigned) [Example 32, 3-(3-chloro-2-methoxyanilino)-2-{3-[(5,5-dimethyl-1,4-dioxan-2-yl)methoxy]pyridin-4-yl}-1,5,6,7-tetrahydro-4H-pyrrolo[3,2-c]pyridin-4-one] | 1.7 | < 3 | 0.127 nM | 2.89 | 1.12
Cc1c(Cl)cccc1Nc1c(-c2ccncc2OCC2COC(C)(C)CO2)[nH]c2c1C(=O)NCC2 (single isomer, unassigned) [Example 46, 3-(3-chloro-2-methyl-anilino)-2-[3-[(5,5-dimethyl-1,4-dioxan-2-yl)methoxy]-4-pyridyl]-1,5,6,7-tetrahydropyrrolo[3,2-c]pyridin-4-one] | 2.89 | < 3 | 0.433 nM | 1.05 | –
Cc1c(F)cccc1Nc1c(-c2ccncc2OCC2COCCO2)[nH]c2c1C(=O)NCC2 (single isomer, unassigned) [Example 48, 2-[3-(1,4-dioxan-2-ylmethoxy)-4-pyridyl]-3-(3-fluoro-2-methyl-anilino)-1,5,6,7-tetrahydropyrrolo[3,2-c]pyridin-4-one] | 3.4 | < 3 | 0.249 nM | 1.43 | –
Cc1c(Cl)cccc1Nc1c(-c2ccncc2OC[C@@H]2CN(C)CCO2)[nH]c2c1C(=O)NCC2 [Example 42, 3-(3-chloro-2-methylanilino)-2-(3-{[(2S)-4-methylmorpholin-2-yl]methoxy}pyridin-4-yl)-1,5,6,7-tetrahydro-4H-pyrrolo[3,2-c]pyridin-4-one] | 4.03 | < 3 | 0.155 nM | 0.486 | 1.63

Further molecules by falling IC50 [1], results first:

IC50 [1] [nM] | IC50 [2] [nM] | mutEGFR (D770_N771insSVD) kinase assay IC50 [5] | SMILES | GI50 [3] [nM] | GI50 [4] [nM]
6.82 | < 3 | 0.17 nM | Cc1c(Cl)cccc1Nc1c(-c2ccncc2OC[C@H]2COCCO2)[nH]c2c1C(=O)NCC2 (single isomer, unassigned) [Example 50] | 1.1 | 1.6
2.68 | < 3 | 0.0872 nM | COc1c(F)cccc1Nc1c(-c2ccncc2OC[C@@H]2COCCN2C)[nH]c2c1C(=O)NCC2 [Example 20, 3-(3-fluoro-2-methoxyanilino)-2-(3-{[(3S)-4-methylmorpholin-3-yl]methoxy}pyridin-4-yl)-1,5,6,7-tetrahydro-4H-pyrrolo[3,2-c]pyridin-4-one] | – | 0.791
2.12 | < 3 | 0.13 nM | COc1c(F)cccc1Nc1c(-c2ccncc2OCC2CN(C)CCO2)[nH]c2c1C(=O)NCC2 (single isomer, unassigned) [Example 14, 3-(3-fluoro-2-methoxyanilino)-2-{3-[(4-methylmorpholin-2-yl)methoxy]pyridin-4-yl}-1,5,6,7-tetrahydro-4H-pyrrolo[3,2-c]pyridin-4-one] | 1.72 | 1.91
1.74 | < 3 | 0.258 nM | CCc1c(Cl)cccc1Nc1c(-c2ccncc2OC[C@@H]2CN(C)CCO2)[nH]c2c1C(=O)NCC2 [Example 56, 3-(3-chloro-2-ethylanilino)-2-(3-{[(2S)-4-methylmorpholin-2-yl]methoxy}pyridin-4-yl)-1,5,6,7-tetrahydro-4H-pyrrolo[3,2-c]pyridin-4-one] | 0.892 | 1.31
1.16 | < 3 | 0.126 nM | COc1c(Cl)cccc1Nc1c(-c2ccncc2OC[C@@H]2COCCN2C)[nH]c2c1C(=O)NCC2 [Example 21, 3-(3-chloro-2-methoxyanilino)-2-(3-{[(3S)-4-methylmorpholin-3-yl]methoxy}pyridin-4-yl)-1,5,6,7-tetrahydro-4H-pyrrolo[3,2-c]pyridin-4-one] | 0.203 | 0.444
